Read-outs that look alike come from different tables or passages of the source.
Experiments:
[1] = test system: intraocular pressure (IOP) in rabbits; conditions: 50 μl
Protocol: New Zealand albino rabbits of either sex were used in the study. A 20% hypertonic saline solution was infused at the speed of 1 ml per min for 10 minutes through the marginal ear vein with an infusion pump.
Then the IOP of both eyes were measured with a Tono-Pen XL Tonometer (Mentor, Norwell, Mass.) at 30 minute and 10 minute intervals before the experiment. At the time of commencement, as well as at 10, 20, 40, 60, and 80 rain intervals measurements were taken, Then measurements were repeated at every 30 minute intervals.

[2] = test system: dopamine D3 receptor mRNA; conditions: daily doses clozapine 30 mg/kg, sulpiride 100 mg/kg; male Wistar rats; long term; cited from earlier work

CCN1CCCC1CNC(=O)c1cc(S(N)(=O)=O)ccc1OC (stereo not drawn) [Sulpiride]
effect on IOP recovery ([1]; 0.5% drop solution, instilled in eye): didn't show a significant ability in decreasing lOP | effect on IOP recovery ([1]; 20% drop solution, listed as sulpiride): able to decrease the intraocular pressure (IOP) | mRNA levels in the dopamine D3 receptor [2]: large increase

Reference: patent US5744468A (Lin; Tong-Ho, priority 1996, dated 1998)
